From patent US20250368648A1, “MULTI-CYCLIC IRAK AND FLT3 INHIBITING COMPOUNDS AND USES THEREOF” (CHILDREN'S HOSPITAL MEDICAL CENTER, priority 2022, published 2025)

Tests used:
THP1 cells = test: Combination drug screening, Cell Titer Glo, THP1 cells; details: THP1 cells; for Excess HSA Score: sum score, 10 × 10 dataset, 48 hours;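 for all read-outs here: luminescence read out in 1536-well plates seeded with 500 THP1 cells per well, each drug spanning a 10-point concentration range in the combination matrix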
Source text: A smaller concentration indicates higher potency to synergize with Venetoclax. […] The numbers in each cell represent the % response (left) or the Delta Bliss score (right) at each given concentration combination.
A smaller concentration indicates higher potency to synergize with azacitidine. […] The numbers in each cell represent the % response (left) or the Delta Bliss score (right) at each given concentration combination.
(§1) This is a cell line that has the FLT3 ITD mutation but also the FLT3 D835Y kinase domain mutation. […] Excess HSA is a measure of synergy vs. additivity or antagonism, wherein a negative Excess HSA value is indicative of synergy.
Briefly, 10 nL of compounds were acoustically dispensed into 1536-well white polystyrene tissue culture-treated plates with an Echo 550 acoustic liquid handler (Labcyte). MOLM14 (D835Y) or THP1 cells were then added to compound-containing plates at a density of 500-cells/well in 5 μL of medium. A 10-point custom concentration range was used for all listed drugs. […] 48h post compound addition, 3 μL of Cell Titer Glo (Promega) were added to each well and plates were incubated at room temperature for 15 minutes with the stainless-steel lid in place. Luminescence readings were taken using a Viewlux imager (PerkinElmer) with a 2 second exposure time per plate.

MOLM14 (D835Y) cells = test: Combination drug screening, Cell Titer Glo, MOLM14 (D835Y) cells; details: MOLM14(D835Y) cells; for Excess HSA Score: sum score, listed as compound in combination with Compound 106, 48 hours;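 for all read-outs here: MOLM14 cells with FLT3 ITD plus D835Y, 500 per well in 1536-well plates, 10-point dose ranges, luminescent viability after 48 h, negative Excess HSA indicates synergy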
Procedure: Briefly, 10 nL of the compound shown below was acoustically dispensed into 1536-well white polystyrene tissue culture-treated plates with an Echo 550 acoustic liquid handler (Labcyte). Cells were then added to compound-containing plate at a density of 500-cells/well in 5 μL of medium. A 6-point or 10-point custom concentration range was used for all listed drugs. Plates were incubated for 48 hours at standard incubator conditions covered by a stainless steel gasketed lid to prevent evaporation. 48h post compound addition, 3 μL of Cell Titer Glo (Promega) were added to each well and plates were incubated at room temperature for 15 minutes with the stainless-steel lid in place. Luminescence readings were taken using a Viewlux imager (PerkinElmer) with a 2 second exposure time per plate.
A smaller concentration indicates higher potency to synergize with Venetoclax.
A smaller concentration indicates higher potency to synergize with azacitidine.
as §1

[1] = listed as compound in combination with CG-806 (a FLT3/BTK inhibitor)
[2] = listed as compound in combination with Compound 45a
[3] = listed as compound in combination with Compound 46a
[4] = listed as compound in combination with Compound 47a
[5] = listed as compound in combination with Compound 48a
[6] = listed as compound in combination with Compound 102
[7] = listed as compound in combination with Compound 106
[8] = listed as compound in combination with Gilteritinib (a FLT3/AXL inhibitor)
[9] = listed as compound in combination with PF-06650833 (an IRAK4 selective inhibitor)
[10] = listed as compound in combination with Quizartinib (a FLT3/Kit/PDGFRa inhibitor)
[11] = listed as compound in combination with emavusertib (CA-4948) (a FLT3/IRAK4 inhibitor)
[12] = combination therapy of CG-806 (a FLT3/BTK inhibitor) and the named additional compound, 110 × 10 dataset
[13] = combination therapy of Compound 45a and the named additional compound, 110 × 10 dataset
[14] = combination therapy of Compound 46a and the named additional compound, 110 × 10 dataset
[15] = combination therapy of Compound 47a and the named additional compound, 110 × 10 dataset
[16] = combination therapy of Compound 48a and the named additional compound, 110 × 10 dataset
[17] = combination therapy of Compound 102 and the named additional compound, 10 × 10 dataset
[18] = combination therapy of Gilteritinib (a FLT3/AXL inhibitor) and the named additional compound, 110 × 10 dataset
[19] = combination therapy of PF-06650833 (an IRAK4 selective inhibitor) and the named additional compound, 110 × 10 dataset
[20] = combination therapy of Quizartinib (a FLT3/Kit/PDGFRa inhibitor) and the named additional compound, 110 × 10 dataset
[21] = combination therapy of emavusertib (CA-4948) (a FLT3/IRAK4 inhibitor) and the named additional compound, 110 × 10 dataset

Row | SMILES | Excess HSA Score (THP1 cells; [1]) | Excess HSA Score (THP1 cells; [2]) | Excess HSA Score (THP1 cells; [3]) | Excess HSA Score (THP1 cells; [4]) | Excess HSA Score (THP1 cells; [5]) | Excess HSA Score (THP1 cells; [6]) | Excess HSA Score (THP1 cells; [7]) | Excess HSA Score (THP1 cells; [8]) | Excess HSA Score (THP1 cells; [9]) | Excess HSA Score (THP1 cells; [10]) | Excess HSA Score (THP1 cells; [11]) | Sum Excess HSA Score (MOLM14 (D835Y) cells; [12]) | Sum Excess HSA Score (MOLM14 (D835Y) cells; [13]) | Sum Excess HSA Score (MOLM14 (D835Y) cells; [14]) | Sum Excess HSA Score (MOLM14 (D835Y) cells; [15]) | Sum Excess HSA Score (MOLM14 (D835Y) cells; [16]) | Sum Excess HSA Score (MOLM14 (D835Y) cells; [17]) | Sum Excess HSA Score (MOLM14 (D835Y) cells; [18]) | Sum Excess HSA Score (MOLM14 (D835Y) cells; [19]) | Sum Excess HSA Score (MOLM14 (D835Y) cells; [20]) | other results
1 | CCN(C(=O)c1cc(F)ccc1Oc1cncnc1N1CC2(CCN(C[C@H]3CC[C@H](NS(=O)(=O)CC)CC3)CC2)C1)C(C)C [SNDX-5613] | 321.1921 | 434.8 | 262.8 | 247.1 | 138.2 | 156.4 | 375.4 | 306.1 | −120 | 413.2 | 468.5 | −1.886 | −24.88 | −263.9 | −358.8 | −804.1 | −748.9985 | 47.75 | −301.3 | −724.1 | Sum Excess HSA Score (MOLM14 (D835Y) cells; [21]): −321; Excess HSA Score (MOLM14 (D835Y) cells; 10 × 10 dataset): −210.8
2 | C[C@@H]1OCC2(CCN(c3cnc(Sc4ccnc(N)c4Cl)c(N)n3)CC2)[C@@H]1N [TNO-155] | −198.4 | 64.74 | 591.7 | 207 | −3.87 | 485.0784 | −22.86 | 394.2 | −194.1 | 587.7 | 527.1 | −753.6 | −1028 | −1041.6332 | −1163 | −1024 | −510.7 | −895.7 | −773.7 | −1091 | Sum Excess HSA Score (MOLM14 (D835Y) cells; [21]): −470.2; Excess HSA Score (MOLM14 (D835Y) cells; 10 × 10 dataset): −943.9
3 | CC(C)Nc1cc(-c2c[nH]c(C(=O)N[C@H](CO)c3cccc(Cl)c3)c2)c(Cl)cn1 [Ulixertinib, ulixertinib] | 518 | −14.94 | 260.4 | −663.3 | −24.53 | −301.9 | −630.1436 | 690.556 | 552.8 | −530.2 | −230.3 | 258.3 | 554.5 | −208.5 | 112.6 | −576.8 | −768.5 | 29.29 | 548.6 | 1180 | Sum Excess HSA Score (MOLM14 (D835Y) cells; [21]): −352.8; Excess HSA Score (MOLM14 (D835Y) cells; 10 × 10 dataset): −71.53
4 | CC1(C)CCC(CN2CCN(c3ccc(C(=O)NS(=O)(=O)c4ccc(NCC5CCOCC5)c([N+](=O)[O-])c4)c(Oc4cnc5[nH]ccc5c4)c3)CC2)=C(c2ccc(Cl)cc2)C1 [Venetoclax (ABT-199), Venetoclax] | −1431.1287 | −1070 | −1405 | −1419 | −628.4379 | −1775 | −1478 | −1448 | −429.3 | −216 | −526.5 | −751 | −1552 | −1667 | −1849 | −1280.6361 | −966.5606 | −1406 | −1578 | −1656 | Comments (THP1 cells; combination with CG-806): Synergistic (a negative Excess HSA value is indicative of synergy); Comments (THP1 cells; combination with Compound 45a): Synergistic (a negative Excess HSA value is indicative of synergy); Comments (THP1 cells; combination with Compound 46a): Synergistic (a negative Excess HSA value is indicative of synergy); Comments (THP1 cells; combination with Compound 47a): Synergistic (a negative Excess HSA value is indicative of synergy); Comments (THP1 cells; combination with Compound 102): Synergistic (a negative Excess HSA value is indicative of synergy); Comments (THP1 cells; combination with Compound 106): Synergistic (a negative Excess HSA value is indicative of synergy); Comments (THP1 cells; combination with Gilteritinib): Synergistic (a negative Excess HSA value is indicative of synergy); Comments (synergistic / antagonistic) (MOLM14 (D835Y) cells; [13]): Synergistic (a negative Excess HSA value is indicative of synergy); Comments (synergistic / antagonistic) (MOLM14 (D835Y) cells; [14]): Synergistic (a negative Excess HSA value is indicative of synergy); Comments (synergistic / antagonistic) (MOLM14 (D835Y) cells; [15]): Synergistic (a negative Excess HSA value is indicative of synergy); Comments (synergistic / antagonistic) (MOLM14 (D835Y) cells; [16]): Synergistic (a negative Excess HSA value is indicative of synergy); Comments (synergistic / antagonistic) (MOLM14 (D835Y) cells; [17]): Synergistic (a negative Excess HSA value is indicative of synergy); Comments (synergistic / antagonistic) (MOLM14 (D835Y) cells; [18]): Synergistic (a negative Excess HSA value is indicative of synergy); Comments (synergistic / antagonistic) (MOLM14 (D835Y) cells; [19]): Synergistic (a negative Excess HSA value is indicative of synergy); Comments (synergistic / antagonistic) (MOLM14 (D835Y) cells; [20]): Synergistic (a negative Excess HSA value is indicative of synergy); Comments (synergistic / antagonistic) (MOLM14 (D835Y) cells; [21]): Synergistic (a negative Excess HSA value is indicative of synergy); Sum Excess HSA Score (MOLM14 (D835Y) cells; [21]): −1038; Comments (MOLM14 (D835Y) cells; combination with Compound 106): Synergistic (a negative Excess HSA value is indicative of synergy); Excess HSA Score (MOLM14 (D835Y) cells; 10 × 10 dataset): −1540
